Measured values published in US20150010928A1, “MEANS AND METHODS FOR ASSESSING AN ENDOCRINE DISEASE OR DISORDER” (priority 2012, published 2015).
Where a name gives a salt, the structure may show the parent alone. Marks after values point to notes of the source that are not given here.

Legend:
[1] = tested on: female rats; experiment: Plasma metabolite profiling (GC-MS, LC-MS, SPE-LC-MS) in female rats dosed once daily over 28 days (OECD 407); format: in vivo, rat
Procedure: Each dose group in the studies consisted of five rats per sex. Additional groups of each 5 male and female animals served as controls. […] All animals of the animal population were kept under the same constant temperature (20-24±3° C.) and the same constant humidity (30-70%). The animals of the animal population were fed ad libitum. The food to be used was essentially free of chemical or microbial contaminants. Drinking water was also offered ad libitum. Accordingly, the water was free of chemical and microbial contaminants as laid down in the European Drinking Water Directive 98/83/EG. The illumination period was 12 hours light followed by 12 hours darkness (12 hours light, from 6:00 to 18:00, and 12 hours darkness, from 18:00 to 6:00). […] The test substances (compounds) in the Tables 1 to 17 below were dosed and administered as described in the Table 18.
In the morning of day 7, 14, and 28, blood was taken from the retroorbital venous plexus from fasted anaesthetized animals. From each animal, 1 ml of blood was collected with EDTA as anticoagulant. The samples were centrifuged for generation of plasma. All plasma samples were covered with a N2 atmosphere and then stored at −80° C. until analysis.
For mass spectrometry-based metabolite profiling analyses plasma samples were extracted and a polar and a non-polar (lipid) fraction was obtained. For GC-MS analysis, the non-polar fraction was treated with methanol under acidic conditions to yield the fatty acid methyl esters. Both fractions were further derivatised with O-methyl-hydroxyamine hydrochloride and pyridine to convert Oxogroups to O-methyloximes and subsequently with a silylating agent before analysis. In LC-MS analysis, both fractions were reconstituted in appropriate solvent mixtures. HPLC was performed by gradient elution on reversed phase separation columns. Mass spectrometric detection which allows target and high sensitivity MRM (Multiple Reaction Monitoring) profiling in parallel to a full screen analysis was applied as described in WO2003073464.
Steroids and their metabolites were measured by online SPE-LC-MS (Solid phase extraction-LC-MS).
Following comprehensive analytical validation steps, the data for each analyte were normalized against data from pool samples. These samples were run in parallel through the whole process to account for process variability. The significance of treatment group values specific for sex, treatmentduration and metabolite was determined by comparing means of the treated groups to the means of the respective untreated control groups using WELCH-test and quantified with treatment ratios versus control and p-values.
The identification of the most important biomarkers per toxicity pattern was done by a ranking of the analytes in the tables below. Therefore the metabolic changes in reference treatments of a given pattern (shown in the table) were compared with changes of the same metabolite in other unrelated treatments. […] The maximum absolute value of the respective TVALUE was taken to indicate the most important metabolite for the pattern.

[2] = tested on: male rats; experiment: Plasma metabolite profiling (GC-MS, LC-MS, SPE-LC-MS) in male rats dosed once daily over 28 days (OECD 407); format: in vivo, rat; settings: high dose; for Cholesterol / Choline plasmalogen No 02 / Lignoceric acid (C24:0) / Sphingomyelin (d18:1, C16:0) / Sphingomyelin (d18:2, C16:0) / erythro-Sphingosine (d18:1): Table 14b
Outline: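 Polar and lipid fractions profiled by GC-MS and LC-MS/MRM, steroids by online SPE-LC-MS; pool-normalized data compared to controls by Welch test as treatment ratios and p-values.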

[3] = female rats, plasma, high dose, day 7
[4] = female rats, plasma, high dose, day 14
[5] = female rats, plasma, high dose, day 28

Compound: O=C(c1ccc(OCCN2CCCCC2)cc1)c1c(-c2ccc(O)cc2)sc2cc(O)ccc12 [Raloxifene Hydrochloride]
- Glycine, ratio versus control [1, 3]: 1.53 *
- Lysine, ratio versus control [1, 3]: 0.8 *
- Lysophosphatidylcholine (C17:0), ratio versus control [1, 3]: 0.74 *
- Phosphatidylcholine (C18:0, C20:3), ratio versus control [1, 3]: 0.73 *
- Phosphatidylcholine (C18:0, C22:6), ratio versus control [1, 3]: 0.87 *
- Proline, ratio versus control [1, 3]: 1.16 *
- TAG (C16:0, C18:2), ratio versus control [1, 3]: 2.05 *
- TAG (C18:2, C18:3), ratio versus control [1, 3]: 1.84 *
- TAG (DAG-Fragment), ratio versus control [1, 3]: 1.8 *
- TAG No 059, ratio versus control [1, 3]: 1.61 *
- Thyroxine (T4), ratio versus control [1, 3]: 1.36^
- Coenzyme Q9, ratio versus control [1, 4]: 1.29 *
- Glycine, ratio versus control [1, 4]: 1.51 *
- Lysine, ratio versus control [1, 4]: 0.61 *
- Lysophosphatidylcholine (C17:0), ratio versus control [1, 4]: 0.72 *
- Phosphatidylcholine (C16:0, C20:5), ratio versus control [1, 4]: 1.25 *
- Phosphatidylcholine (C18:0, C20:3), ratio versus control [1, 4]: 0.86 *
- Phosphatidylcholine (C18:0, C22:6), ratio versus control [1, 4]: 0.85 *
- Proline, ratio versus control [1, 4]: 1.2 *
- TAG (C16:0, C18:2), ratio versus control [1, 4]: 1.27 *
- TAG (C18:2, C18:3), ratio versus control [1, 4]: 1.31 *
- TAG (DAG-Fragment), ratio versus control [1, 4]: 1.4 *
- TAG No 059, ratio versus control [1, 4]: 1.47 *
- Thyroxine (T4), ratio versus control [1, 4]: 2.5 *
- Coenzyme Q9, ratio versus control [1, 5]: 1.31 *
- Glycine, ratio versus control [1, 5]: 1.4 *
- Lysine, ratio versus control [1, 5]: 0.81 *
- Lysophosphatidylcholine (C17:0), ratio versus control [1, 5]: 0.72 *
- Phosphatidylcholine (C18:0, C20:3), ratio versus control [1, 5]: 0.81 *
- Phosphatidylcholine (C18:0, C22:6), ratio versus control [1, 5]: 0.72 *
- TAG (C16:0, C18:2), ratio versus control [1, 5]: 1.95 *
- TAG (C18:2, C18:3), ratio versus control [1, 5]: 1.64 *
- TAG (DAG-Fragment), ratio versus control [1, 5]: 1.76 *
- TAG No 059, ratio versus control [1, 5]: 1.61 *
- Thyroxine (T4), ratio versus control [1, 5]: 1.57 *
- Coenzyme Q9, ratio versus control ([1]; rat, in vivo): 1.18 *
- Proline, ratio versus control ([1]; rat, in vivo): 1.14 *
- Cholesterol ([2]; m7): 0.44
- Choline plasmalogen No 02 ([2]; m7): 0.67
- Lignoceric acid (C24:0) ([2]; m7): 0.45
- Sphingomyelin (d18:1, C16:0) ([2]; m7): 0.52
- Sphingomyelin (d18:2, C16:0) ([2]; m7): 0.82
- erythro-Sphingosine (d18:1) ([2]; m7): 0.38
- Cholesterol ([2]; m14): 0.47
- Choline plasmalogen No 02 ([2]; m14): 0.69
- Lignoceric acid (C24:0) ([2]; m14): 0.39
- Sphingomyelin (d18:1, C16:0) ([2]; m14): 0.62
- Sphingomyelin (d18:2, C16:0) ([2]; m14): 0.78
- erythro-Sphingosine (d18:1) ([2]; m14): 0.49
- Cholesterol ([2]; m28): 0.63
- Choline plasmalogen No 02 ([2]; m28): 0.65
- Lignoceric acid (C24:0) ([2]; m28): 0.64
- Sphingomyelin (d18:1, C16:0) ([2]; m28): 0.65
- Sphingomyelin (d18:2, C16:0) ([2]; m28): 0.63
- erythro-Sphingosine (d18:1) ([2]; m28): 0.57

Compound: ACTH: adrenocorticotropin (ACTH) produced in the adenohypophysis of the pituitary gland (SYSMEHFRWGKPVGKKRRPVKVYPNGAEDESAEAFPLEF; Corticotropin; UniProt P01189 138-176, looked up)
- 3-Hydroxybutyrate, ratio versus control [1, 5]: 0.85 *
- 5-Oxoproline, ratio versus control [1, 5]: 1.05 *
- 18-Hydroxy-11-deoxycorticosterone, ratio versus control [1, 5]: 0.69 *
- 21-Hydroxyprogesterone (11-Deoxycorticosterone), ratio versus control [1, 5]: 0.31 *
- Biotin, ratio versus control [1, 5]: 0.7 *
- Choline plasmalogen No 03, ratio versus control [1, 5]: 0.77 *
- Citrate, ratio versus control [1, 5]: 0.92 *
- Corticosterone, ratio versus control [1, 5]: 0.67 *
- Ketoleucine, ratio versus control [1, 5]: 0.76 *
- Lactate, ratio versus control [1, 5]: 0.68 *
- Lysophosphatidylcholine (C18:2), ratio versus control [1, 5]: 1.06 *
- Lysophosphatidylcholine (C20:4), ratio versus control [1, 5]: 1.11 *
- Malate, ratio versus control [1, 5]: 0.76 *
- Mannose, ratio versus control [1, 5]: 1.04 *
- TAG No 059, ratio versus control [1, 5]: 1.62 *
- Tyrosine, ratio versus control [1, 5]: 1.26 *
- alpha-Tocopherol, ratio versus control [1, 5]: 0.95 *
- 3,4-Dihydroxyphenylalanine (DOPA), ratio versus control ([2]; male rats, plasma, day 28): 0.86 *
- 3-Hydroxybutyrate, ratio versus control ([2]; male rats, plasma, day 28): 0.65 *
- 18-Hydroxy-11-deoxycorticosterone, ratio versus control ([2]; male rats, plasma, day 28): 0.43 *
- 21-Hydroxyprogesterone (11-Deoxycorticosterone), ratio versus control ([2]; male rats, plasma, day 28): 0.18 *
- Biotin, ratio versus control ([2]; male rats, plasma, day 28): 0.64 *
- Citrate, ratio versus control ([2]; male rats, plasma, day 28): 0.82 *
- Corticosterone, ratio versus control ([2]; male rats, plasma, day 28): 0.42 *
- Ketoleucine, ratio versus control ([2]; male rats, plasma, day 28): 0.81 *
- Lysophosphatidylethanolamine (C22:5), ratio versus control ([2]; male rats, plasma, day 28): 1.22 *
- Phosphatidylcholine No 04, ratio versus control ([2]; male rats, plasma, day 28): 0.8 *
- Progesterone, ratio versus control ([2]; male rats, plasma, day 28): 0.14 *
- Urea, ratio versus control ([2]; male rats, plasma, day 28): 1.28 *
